In patent publication US20240190855A1 (Relay Therapeutics, Inc., priority 2021, published 2024):

biological target: T1, CDK2/Cyclin E complex (Homo sapiens, UniProt P24941); experiment: CDK2/Cyclin E fluorescence-based microfluidic mobility shift assay (CDK2 Biochemical Caliper Assay); conditions: read-out: Biochemical CDK2/CyclinE Caliper IC50
T1 construct: purchased Eurofins 14-475
Summary of the method: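 Wild-type CDK2/Cyclin E was preincubated with compound and ATP for 30 min at RT before the 5-FAM-QSPKKG peptide was added. Final concentrations were 0.1 nM enzyme, 2000 uM ATP, 1.5 uM peptide and 1% DMSO. After 20 hr at RT and EDTA stop, substrate conversion was read by microfluidic mobility shift over an 11-point, 3-fold dilution series.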

Q: With `Cn1nc(COC(F)(F)F)cc1C(=O)Nc1cc([C@H]2C[C@@H](OC(=O)NC34CC(C3)C4)CO2)[nH]n1` [Example 750] as the compound, how does the IC50 read?
A: ≤ 100 nM

Q: How did the IC50 turn out when `CC1(C)NC(=O)c2ccc(Nc3cc([C@H]4C[C@@H](OC(=O)NC56CC(C5)C6)CO4)[nH]n3)nc21` [Example 751] was run?
A: ≤ 100 nM

Q: Which IC50 does the source give for `COCc1cc2c(Nc3cc([C@H]4C[C@@H](OC(=O)N[C@H](C)C(F)F)CO4)[nH]n3)nccn2n1` [Example 752] here?
A: ≤ 100 nM

Q: For `Cn1nc(COC(F)F)cc1C(=O)Nc1cc([C@H]2C[C@@H](OC(=O)NC3(C)CC3)CO2)[nH]n1` [Example 753], which IC50 is on record?
A: ≤ 100 nM

Q: How did the IC50 turn out when `CC1(NC(=O)O[C@H]2CO[C@@H](c3cc(Nc4nccn5nc(C6CC6)cc45)n[nH]3)C2)CC1` [Example 754] was run?
A: ≤ 100 nM

Q: `CC1(NC(=O)O[C@H]2CO[C@@H](c3cc(Nc4ccn5c(Cl)nnc5n4)n[nH]3)C2)CC1` [Example 755] was tested. Which IC50 did it give?
A: 250 to 1000 nM

Q: `CN1CCc2c(ccnc2Nc2cc([C@H]3C[C@@H](OC(=O)NC4(C)CC4)CO3)[nH]n2)C1` [Example 758] was tested. Which IC50 did it give?
A: 1000 to 100000 nM

Q: For `COCc1cc2c(Nc3cc([C@H]4C[C@@H](OC(=O)N[C@@H]5C[C@@H]5C)CO4)[nH]n3)nccn2n1` [Example 759], which IC50 is on record?
A: ≤ 100 nM

Q: With `CC1(NC(=O)O[C@H]2CO[C@@H](c3cc(Nc4cc5nccnc5cn4)n[nH]3)C2)CC1` [Example 760] as the compound, how does the IC50 read?
A: 250 to 1000 nM

Q: With `CC1(NC(=O)O[C@H]2CO[C@@H](c3cc(Nc4ncnc5ncccc45)n[nH]3)C2)CC1` [Example 761] as the compound, how does the IC50 read?
A: ≤ 100 nM

Q: For `CC1(NC(=O)O[C@H]2CO[C@@H](c3cc(Nc4ccc5nccnc5n4)n[nH]3)C2)CC1` [Example 762], which IC50 is on record?
A: 100 to 250 nM

Q: Which IC50 does the source give for `COCc1cc2c(Nc3cc([C@H]4C[C@@H](OC(=O)N[C@@H](C)C(F)F)CO4)[nH]n3)nccn2n1` [Example 763] here?
A: ≤ 100 nM

Q: For `COCc1cc2c(Nc3cc([C@@H]4C[C@H](OC(=O)NC5(C(F)(F)F)CC5)CO4)[nH]n3)nccn2n1` [Example 764], which IC50 is on record?
A: ≤ 100 nM

Q: Which IC50 does the source give for `COCc1cc2c(Nc3cc([C@@H]4C[C@H](OC(=O)N[C@H](C)C5CC5)CO4)[nH]n3)nccn2n1` [Example 765] here?
A: ≤ 100 nM

Q: `COCc1cc2c(Nc3cc([C@@H]4C[C@H](OC(=O)N[C@@H](C)C5CC5)CO4)[nH]n3)nccn2n1` [Example 766] was tested. Which IC50 did it give?
A: ≤ 100 nM

Q: How did the IC50 turn out when `COCc1cc2c(Nc3cc([C@@H]4C[C@H](OC(=O)NC56CC(C5)C6)CO4)[nH]n3)nccn2n1` [Example 767] was run?
A: ≤ 100 nM

Q: How did the IC50 turn out when `COCc1cc2c(Nc3cc([C@H]4C[C@@H](Oc5[nH]ncc5C(C)(C)C)CO4)[nH]n3)nccn2n1` [Example 768] was run?
A: ≤ 100 nM

Q: For `CC1(NC(=O)O[C@H]2CO[C@@H](c3cc(Nc4nccn5nc(C(F)F)cc45)n[nH]3)C2)CC1` [Example 769], which IC50 is on record?
A: ≤ 100 nM

Q: Which IC50 does the source give for `Cn1nc(C(F)(F)F)cc1C(=O)Nc1cc([C@H]2C[C@@H](OC(=O)NC3(C)CC3)CO2)[nH]n1` [Example 770] here?
A: ≤ 100 nM

Q: For `Cn1nc(COCC(F)(F)F)cc1C(=O)Nc1cc([C@H]2C[C@@H](OC(=O)NC3(C)CC3)CO2)[nH]n1` [Example 771], which IC50 is on record?
A: ≤ 100 nM

Q: For `C[C@H](NC(=O)O[C@H]1CO[C@@H](c2cc(NC(=O)c3cc(COC(F)F)nn3C)n[nH]2)C1)C1CC1` [Example 772], which IC50 is on record?
A: ≤ 100 nM

Q: How did the IC50 turn out when `Cn1nc(COC(F)(F)F)cc1C(=O)Nc1cc([C@@H]2C[C@H](OC(=O)NC3(C)CC3)CO2)[nH]n1` [Example 773] was run?
A: ≤ 100 nM

Q: With `CC(C)(C)n1cnnc1O[C@H]1CO[C@@H](c2cc(Nc3nccn4nccc34)n[nH]2)C1` [Example 774] as the compound, how does the IC50 read?
A: ≤ 100 nM

Q: Which IC50 does the source give for `COCc1cc2c(Nc3cc([C@H]4C[C@@H](OC(=O)N[C@H]5C[C@H]5C)CO4)[nH]n3)nccn2n1` [Example 775] here?
A: ≤ 100 nM

Q: How did the IC50 turn out when `Cn1nc(COC(F)(F)F)cc1C(=O)Nc1cc([C@@H]2C[C@H](OC(=O)NC34CC(C3)C4)CO2)[nH]n1` [Example 776] was run?
A: ≤ 100 nM

Q: For `C[C@H](NC(=O)O[C@@H]1CO[C@H](c2cc(NC(=O)c3cc(COC(F)(F)F)nn3C)n[nH]2)C1)C1CC1` [Example 780], which IC50 is on record?
A: ≤ 100 nM

Q: For `CC1(NC(=O)O[C@H]2CO[C@@H](c3cc(Nc4nccn5nccc45)n[nH]3)C2)CC1` [Example 781], which IC50 is on record?
A: ≤ 100 nM

Q: Which IC50 does the source give for `CC1(NC(=O)O[C@@H]2CO[C@H](c3cc(Nc4nccn5nccc45)n[nH]3)C2)CC1` [Example 782] here?
A: ≤ 100 nM

Q: With `COCc1cc2c(Nc3cc([C@H]4C[C@@H](Oc5nn(C)cc5C(C)(C)C)CO4)[nH]n3)nccn2n1` [Example 783] as the compound, how does the IC50 read?
A: 1000 to 100000 nM

Q: For `CC(C)n1cnnc1O[C@H]1CO[C@@H](c2cc(Nc3nccn4nccc34)n[nH]2)C1` [Example 784], which IC50 is on record?
A: ≤ 100 nM

Q: Which IC50 does the source give for `Cn1nc(CC(F)(F)F)cc1C(=O)Nc1cc([C@H]2C[C@@H](OC(=O)NC3(C)CC3)CO2)[nH]n1` [Example 785] here?
A: ≤ 100 nM

Q: Which IC50 does the source give for `Cn1nc(C(F)F)cc1C(=O)Nc1cc([C@H]2C[C@@H](OC(=O)NC3(C)CC3)CO2)[nH]n1` [Example 786] here?
A: ≤ 100 nM

Q: How did the IC50 turn out when `Cn1nc(OC(F)(F)F)cc1C(=O)Nc1cc([C@H]2C[C@@H](OC(=O)NC3(C)CC3)CO2)[nH]n1` [Example 787] was run?
A: ≤ 100 nM

Q: `Cn1nc(COC(F)(F)F)cc1C(=O)Nc1cc([C@H]2C[C@@H](OC(=O)NC3(C#N)CC3)CO2)[nH]n1` [Example 788] was tested. Which IC50 did it give?
A: ≤ 100 nM

Q: With `COCc1cc2c(Nc3cc([C@H]4C[C@@H](Oc5nn(C)cc5C(C)C)CO4)[nH]n3)nccn2n1` [Example 790] as the compound, how does the IC50 read?
A: 1000 to 100000 nM

Q: How did the IC50 turn out when `Cn1nc(CCOC(F)(F)F)cc1C(=O)Nc1cc([C@H]2C[C@@H](OC(=O)NC3(C)CC3)CO2)[nH]n1` [Example 791] was run?
A: ≤ 100 nM

Q: For `Cc1cc2c(c(Nc3cc(C4CCCC4)[nH]n3)n1)C(=O)NC2=O` [Example 792], which IC50 is on record?
A: 1000 to 100000 nM

Q: Which IC50 does the source give for `c1cn2ncc(Nc3cc(C4CCCC4)[nH]n3)cc2n1` [Example 793] here?
A: 1000 to 100000 nM

Q: How did the IC50 turn out when `c1c(Nc2ncc3c(n2)C2CCC3C2)n[nH]c1C1CCCC1` (centres unmarked) [Example 794] was run?
A: 1000 to 100000 nM

Q: For `Cc1cc(C)n2ccnc(Nc3cc(C4CCCC4)[nH]n3)c12` [Example 795], which IC50 is on record?
A: 1000 to 100000 nM

Q: Which IC50 does the source give for `CC1(C)NC(=O)c2ccc(Nc3cc(C4CCCC4)[nH]n3)nc21` [Example 796] here?
A: ≤ 100 nM

Q: With `Cc1nc(Nc2cc(C3CCCC3)[nH]n2)cc2nncn12` [Example 797] as the compound, how does the IC50 read?
A: 1000 to 100000 nM

Q: With `N#CCc1c[nH]c2nccc(Nc3cc(C4CCCC4)[nH]n3)c12` [Example 798] as the compound, how does the IC50 read?
A: 1000 to 100000 nM

Q: With `Cc1cncc(Cl)c1Nc1cc(C2CCCC2)[nH]n1` [Example 799] as the compound, how does the IC50 read?
A: 1000 to 100000 nM

Q: How did the IC50 turn out when `COC(=O)c1cc(Nc2cc(C3CCCC3)[nH]n2)cnn1` [Example 800] was run?
A: 1000 to 100000 nM

Q: For `Clc1cccc2nc(Nc3cc(C4CCCC4)[nH]n3)cnc12` [Example 801], which IC50 is on record?
A: 1000 to 100000 nM

Q: Which IC50 does the source give for `Cc1cc(Nc2cc(C3CCCC3)[nH]n2)n2nc(C)cc2n1` [Example 802] here?
A: 1000 to 100000 nM

Q: For `COC(=O)c1cnc(C)cc1Nc1cc(C2CCCC2)[nH]n1` [Example 803], which IC50 is on record?
A: 1000 to 100000 nM

Q: `COc1cnc2c(Nc3cc(C4CCCC4)[nH]n3)nccc2c1` [Example 804] was tested. Which IC50 did it give?
A: 1000 to 100000 nM

Q: For `Cc1csc2nc(Nc3cc(C4CCCC4)[nH]n3)ncc12` [Example 805], which IC50 is on record?
A: 1000 to 100000 nM

Q: With `Cc1cc(C)nc(Nc2cc(C3CCCC3)[nH]n2)n1` [Example 806] as the compound, how does the IC50 read?
A: 1000 to 100000 nM

Q: How did the IC50 turn out when `CCCc1cnnc(Nc2cc(C3CCCC3)[nH]n2)c1` [Example 807] was run?
A: 1000 to 100000 nM

Q: How did the IC50 turn out when `CCCCOc1ccc(Nc2cc(C3CCCC3)[nH]n2)nc1` [Example 808] was run?
A: 1000 to 100000 nM

Q: `CC1Cc2nc(Nc3cc(C4CCCC4)[nH]n3)ncc2C(C)O1` (centres unmarked) [Example 809] was tested. Which IC50 did it give?
A: 1000 to 100000 nM

Q: With `COc1cc(Nc2cc(C3CCCC3)[nH]n2)nc2sccc12` [Example 810] as the compound, how does the IC50 read?
A: 1000 to 100000 nM

Q: With `COCCOc1ccnc(Nc2cc(C3CCCC3)[nH]n2)n1` [Example 811] as the compound, how does the IC50 read?
A: 1000 to 100000 nM
